The text below walks through data of patent publication US5352659A, “Endothelin analogs and uses thereof” (Takeda Chemical Industries, priority 1991, dated 1994).

Test [1] deals with endothelin receptor. As to the kind of experiment: Assay of affinity for receptor (inhibition of 125I-ET-1 binding to porcine myocardial membrane fraction). To be noted: relative to ET-1 = 100. As for the experimental part: Assay of Affinity for Receptor
A membrane fraction prepared from the porcine heart was diluted to 0.15 mg/ml by using a buffer solution for assay, and 100 μl of the resulting suspension of the membrane fraction was poured into each assay tube to use for assay. To this suspension of the membrane fraction was added 2 μl of 5 nM ^125 I labeled endothelin-1 solution. Further, 3 μl of a test peptide solution was added thereto, followed by incubation at a temperature of 25° C. for 1 hour. Then, the resulting suspension was diluted with 900 μl of the buffer solution for assay cooled with ice, and thereafter separated into a supernatant and a precipitate by centrifugation at 12,000×g for 10 minutes. Cell membranes and an endothelin receptor embedded therein were contained in the precipitate, and radioactive iodine-labeled endothelin combined with the receptor was also recovered in the precipitate. Accordingly, the amount of radioactive iodine-labeled endothelin combined with the endothelin receptor was determined by measuring the amount of radioactive iodine contained in the precipitate with a gamma-ray counter.

The test system of test [2] is porcine coronary artery. As to the kind of experiment: Constrictor activity on porcine coronary smooth muscles. To be noted: for Maximum constriction (% 60 mM KCl): porcine coronary artery strips, normalized to 60 mM KCl response; for Constrictor activity (specific activity): relative to ET-1 = 100, porcine coronary artery. The protocol: (§1) Spiral strips 2 mm×15 mm prepared from the coronary right ramus circumflexus from which the adventitial connective tissues and the endothelial cells were removed were set to 4 ml organ baths. The tension of each strip was detected by a force displacement transducer UL-10GR (Minebea), and recorded by a polygraph (NEC Sanei). The organ baths were maintained at 37° C., and filled with a Krebs-Henseleit solution (composition: 118 mM NaCl, 4.7 mM KCl, 2.5 mM CaCl2, 1.2 mM KH2 PO4, 25.0 mM NaHCO3, 1.2 mM MgSO4, 10.0 mM glucose) gassed with 95% O2 and 5% CO2.
(§2) A tension of 1.25 to 1.5 g was applied to each of the strips, followed by equilibration for 1.5 hours. 60 mM KCl was repeatedly applied thereto at intervals of 30 minutes until the constriction response became constant. After additional equilibration for 1.5 hours, a sample for assay was given thereto. The constriction of the strips was normalized by the constriction response of the individual strips to 60 mM KCl and statistically processed.
(2) As to the antagonistic property of the peptides of the present invention to endothelin, the affinity for an endothelin receptor and the constrictor activity on porcine coronary smooth muscles (according to the method described in (1) described above) were assayed. The affinity for the receptor was assayed by the following method.

Test [3] deals with porcine coronary smooth muscles. As for the experimental part: (1) Assay of Constrictor Suppressing Activity on Porcine Coronary Smooth Muscles
as §1, §2
pA2 is a negative logarithm value of a molar concentration of a competitive antagonist necessary for shifting in parallel a dose response curve for an active drug (for example, ET-1) alone to the high dose side by a factor of 2.

[4] abbreviates: against cumulative endothelin-1, porcine coronary smooth muscles.

Read-outs that look alike come from different tables or passages of the source. Bridge positions count the residues as written; N and C are the ends. Square brackets hold non-standard residues; d marks the D form. Peptide text beside a SMILES is read from it. Cha = N[C@@H](CC1CCCCC1)C(=O)O; Nle = CCCC[C@H](N)C(=O)O A value given as a limit tells only on which side of the number the result lay.

As for `CC[C@H](C)[C@H](NC(=O)[C@H](CC(C)C)NC(=O)[C@@H](NC(=O)[C@H](CC(C)C)NC(=O)[C@H](Cc1c[nH]cn1)NC(=O)[C@@H]1CSSC[C@H](N)C(=O)N[C@@H](C)C(=O)N[C@H]2CSSC[C@H](NC(=O)[C@H](CCC(=O)O)NC(=O)[C@H](CCCCN)NC(=O)[C@H](CC(=O)O)NC(=O)[C@H](CCSC)NC(=O)[C@H](CC(C)C)NC(=O)[C@H](CO)NC(=O)[C@H](CO)NC2=O)C(=O)N[C@@H](C(C)C)C(=O)N[C@@H](Cc2ccc(O)cc2)C(=O)N[C@@H](Cc2ccccc2)C(=O)N1)[C@@H](C)O)C(=O)N[C@@H](Cc1c[nH]c2ccccc12)C(=O)O` [Example 12, [Ala^2, Thr^18, Leu^19]-ET-1] (H-CACSSLMDKECVYFCHLTLIW-OH; disulfide 1-15, 3-11), the “Receptor binding activity (specific activity)” value (“Receptor binding activity” below) in test [1] came to 32. Further, in test [2], the “Maximum constriction (% 60 mM KCl)” value is reported as 5 % 60 mM KCl and the “Constrictor activity (specific activity)” value is on record as less than 0.1. Further, the pA2 in test [3] is on record as 6.7.

Regarding `CC[C@H](C)[C@H](NC(=O)[C@H](CC(C)C)NC(=O)CNC(=O)[C@H](CC(C)C)NC(=O)[C@H](Cc1c[nH]cn1)NC(=O)[C@@H]1CSSC[C@H](N)C(=O)N[C@@H](CO)C(=O)N[C@H]2CSSC[C@H](NC(=O)[C@H](CCC(=O)O)NC(=O)[C@H](CCCCN)NC(=O)[C@H](CC(=O)O)NC(=O)[C@H](CCSC)NC(=O)[C@H](CC(C)C)NC(=O)[C@H](CO)NC(=O)[C@H](CO)NC2=O)C(=O)N[C@@H](C(C)C)C(=O)N[C@@H](Cc2ccc(O)cc2)C(=O)N[C@@H](Cc2ccccc2)C(=O)N1)C(=O)N[C@@H](Cc1c[nH]c2ccccc12)C(=O)O` [Example 8, [Gly^18, Leu^19]-ET-1] (H-CSCSSLMDKECVYFCHLGLIW-OH; disulfide 1-15, 3-11), the “Receptor binding activity” value in test [1] is listed as 9.5. Moreover, in test [2], the “Maximum constriction (% 60 mM KCl)” value turned out to be 14 % 60 mM KCl and the “Constrictor activity (specific activity)” value is less than 0.1. In test [3], this compound returned a Relative potency of 10 and a pA2 of 6.7.

For the compound `CC[C@H](C)[C@H](NC(=O)[C@H](CC(C)C)NC(=O)[C@@H](NC(=O)[C@H](CC(C)C)NC(=O)[C@H](Cc1c[nH]cn1)NC(=O)[C@@H]1CSSC[C@H](N)C(=O)N[C@@H](CO)C(=O)N[C@H]2CSSC[C@H](NC(=O)[C@H](CCC(=O)O)NC(=O)[C@H](C)NC(=O)[C@H](CC(=O)O)NC(=O)[C@H](CCSC)NC(=O)[C@H](CC(C)C)NC(=O)[C@H](CO)NC(=O)[C@H](CO)NC2=O)C(=O)N[C@@H](C(C)C)C(=O)N[C@@H](Cc2ccc(O)cc2)C(=O)N[C@@H](Cc2ccccc2)C(=O)N1)[C@@H](C)O)C(=O)N[C@@H](Cc1c[nH]c2ccccc12)C(=O)O` [Example 10, [Ala^9, Thr^18, Leu^19]-ET-1] (H-CSCSSLMDAECVYFCHLTLIW-OH; disulfide 1-15, 3-11), the “Receptor binding activity” value in test [1] was 16. For the same compound, in test [2], the “Maximum constriction (% 60 mM KCl)” value turned out to be 4 % 60 mM KCl and the “Constrictor activity (specific activity)” value is recorded as less than 0.1. In test [3], this compound came in with a Relative potency of 1.6 and a pA2 of 5.9.

Regarding `CC[C@H](C)[C@H](NC(=O)[C@H](CC(C)C)NC(=O)[C@@H](NC(=O)[C@H](CC(C)C)NC(=O)[C@H](Cc1c[nH]cn1)NC(=O)[C@@H]1CSSC[C@H](N)C(=O)N[C@@H](CO)C(=O)N[C@H]2CSSC[C@H](NC(=O)[C@H](CCC(=O)O)NC(=O)[C@H](CCCCN)NC(=O)[C@H](CC(=O)O)NC(=O)[C@H](CCSC)NC(=O)[C@H](CC(C)C)NC(=O)[C@H](CO)NC(=O)[C@H](CO)NC2=O)C(=O)N[C@@H](C(C)C)C(=O)N[C@@H](Cc2ccc(O)cc2)C(=O)N[C@@H](Cc2ccccc2)C(=O)N1)[C@@H](C)O)C(=O)N[C@@H](Cc1c[nH]c2ccccc12)C(=O)O` [Example 1, [Thr^18, Leu^19]-ET-1] (H-CSCSSLMDKECVYFCHLTLIW-OH; disulfide 1-15, 3-11), the “Receptor binding activity” value in test [1] is 40. In test [2], the “Maximum constriction (% 60 mM KCl)” value was 4 % 60 mM KCl and the “Constrictor activity (specific activity)” value is less than 0.1. Also, in test [3] (setting [4]), the pA2 is listed as 7.7.

Regarding `CC[C@H](C)[C@H](NC(=O)[C@H](CC(C)C)NC(=O)[C@@H](NC(=O)[C@H](CC(C)C)NC(=O)[C@H](Cc1c[nH]cn1)NC(=O)[C@@H]1CSSC[C@H](N)C(=O)N[C@@H](CO)C(=O)N[C@H]2CSSC[C@H](NC(=O)[C@H](CCC(=O)O)NC(=O)[C@H](CCCCN)NC(=O)[C@H](CC(=O)O)NC(=O)[C@H](C)NC(=O)[C@H](CC(C)C)NC(=O)[C@H](CO)NC(=O)[C@H](CO)NC2=O)C(=O)N[C@@H](C(C)C)C(=O)N[C@@H](Cc2ccc(O)cc2)C(=O)N[C@@H](Cc2ccccc2)C(=O)N1)[C@@H](C)O)C(=O)N[C@@H](Cc1c[nH]c2ccccc12)C(=O)O` [Example 16, [Ala^7, Thr^18, Leu^19]-ET-1] (H-CSCSSLADKECVYFCHLTLIW-OH; disulfide 1-15, 3-11), the “Receptor binding activity” value in test [1] came to 62. For the same compound, in test [2], the “Maximum constriction (% 60 mM KCl)” value stood at 9 % 60 mM KCl and the “Constrictor activity (specific activity)” value is less than 0.1. Moreover, in test [3], the pA2 is 7.2.

For the compound `CC[C@H](C)[C@H](NC(=O)[C@H](CC(C)C)NC(=O)[C@@H](NC(=O)[C@H](CC(C)C)NC(=O)[C@H](Cc1c[nH]cn1)NC(=O)[C@@H]1CSSC[C@H](N)C(=O)N[C@@H](CO)C(=O)N[C@H]2CSSC[C@H](NC(=O)[C@H](CCC(=O)O)NC(=O)[C@H](CCCCN)NC(=O)[C@H](CC(=O)O)NC(=O)[C@H](CCSC)NC(=O)[C@H](CC(C)C)NC(=O)[C@H](CO)NC(=O)[C@H](C)NC2=O)C(=O)N[C@@H](C(C)C)C(=O)N[C@@H](Cc2ccc(O)cc2)C(=O)N[C@@H](Cc2ccccc2)C(=O)N1)[C@@H](C)O)C(=O)N[C@@H](Cc1c[nH]c2ccccc12)C(=O)O` [Example 13, [Ala^4, Thr^18, Leu^19]-ET-1] (H-CSCASLMDKECVYFCHLTLIW-OH; disulfide 1-15, 3-11), in test [1], the “Receptor binding activity” value was determined as 57. Besides, in test [2], the “Maximum constriction (% 60 mM KCl)” value amounted to 6 % 60 mM KCl and the “Constrictor activity (specific activity)” value is less than 0.1. The compound also came in with a pA2 in test [3] of 6.9.

For `CC[C@H](C)[C@H](NC(=O)[C@H](CC1CCCCC1)NC(=O)[C@@H](NC(=O)[C@H](CC(C)C)NC(=O)[C@H](Cc1c[nH]cn1)NC(=O)[C@@H]1CSSC[C@H](N)C(=O)N[C@@H](CO)C(=O)N[C@H]2CSSC[C@H](NC(=O)[C@H](CCC(=O)O)NC(=O)[C@H](CCCCN)NC(=O)[C@H](CC(=O)O)NC(=O)[C@H](CCSC)NC(=O)[C@H](CC(C)C)NC(=O)[C@H](CO)NC(=O)[C@H](CO)NC2=O)C(=O)N[C@@H](C(C)C)C(=O)N[C@@H](Cc2ccc(O)cc2)C(=O)N[C@@H](Cc2ccccc2)C(=O)N1)[C@@H](C)O)C(=O)N[C@@H](Cc1c[nH]c2ccccc12)C(=O)O` [Example 2, [Thr^18, Cha^19]-ET-1] (H-CSCSSLMDKECVYFCHLT[Cha]IW-OH; disulfide 1-15, 3-11), the “Receptor binding activity” value in test [1] came to 23. In test [2], the “Maximum constriction (% 60 mM KCl)” value turned out to be 2 % 60 mM KCl and the “Constrictor activity (specific activity)” value was less than 0.1. For the same compound, the pA2 in test [3] (setting [4]) is given as 7.7.

For the compound `CCCC[C@@H]1NC(=O)[C@H](CC(C)C)NC(=O)[C@H](CO)NC(=O)[C@H](CO)NC(=O)[C@@H]2CSSC[C@H](NC(=O)[C@H](CCC(=O)O)NC(=O)[C@H](CCCCN)NC(=O)[C@H](CC(=O)O)NC1=O)C(=O)N[C@@H](C(C)C)C(=O)N[C@@H](Cc1ccc(O)cc1)C(=O)N[C@@H](Cc1ccccc1)C(=O)N[C@H](C(=O)N[C@@H](Cc1c[nH]cn1)C(=O)N[C@@H](CC(C)C)C(=O)N[C@H](C(=O)N[C@@H](CC(C)C)C(=O)N[C@H](C(=O)N[C@@H](Cc1c[nH]c3ccccc13)C(=O)O)[C@@H](C)CC)[C@@H](C)O)CSSC[C@H](N)C(=O)N[C@@H](CO)C(=O)N2` [Example 17, [Nle^7, Thr^18, Leu^19]-ET-1] (H-CSCSSL[Nle]DKECVYFCHLTLIW-OH; disulfide 1-15, 3-11), the “Receptor binding activity” value in test [1] is 27. In test [2], the “Maximum constriction (% 60 mM KCl)” value came to 9 % 60 mM KCl and the “Constrictor activity (specific activity)” value is less than 0.1.

A word on the pA2: it is a measure of antagonist potency on a negative log scale. Low readings indicate a weaker antagonist, high ones a more potent antagonist.
